# Laboratory results as given in patent US20220411388A1, “SUBSTITUTED IMIDAZOLE CARBOXAMIDES AND THEIR USE IN THE TREATMENT OF MEDICAL DISORDERS” (Bial - R&D Investments, S.A., priority 2019, published 2022).
# What was measured:
# [1] = Compound solubility in water; assay type: physicochemical
# acid ceramidase (hACR) = molecular target: T1, acid ceramidase (hACR) (Homo sapiens, UniProt Q13510); experiment: Acid ceramidase inhibition, biochemical fluorescent assay with cell lysates overexpressing acid ceramidase (substrate Rbm14-12); conditions: cell lysate, 1 hr preincubation at RT, pH 4.5, Rbm14-12 6.3 μM; read-out: IC50 hACR
# T1 construct: expressed in transfected cells
# T1 sequence (Q13510 22-395): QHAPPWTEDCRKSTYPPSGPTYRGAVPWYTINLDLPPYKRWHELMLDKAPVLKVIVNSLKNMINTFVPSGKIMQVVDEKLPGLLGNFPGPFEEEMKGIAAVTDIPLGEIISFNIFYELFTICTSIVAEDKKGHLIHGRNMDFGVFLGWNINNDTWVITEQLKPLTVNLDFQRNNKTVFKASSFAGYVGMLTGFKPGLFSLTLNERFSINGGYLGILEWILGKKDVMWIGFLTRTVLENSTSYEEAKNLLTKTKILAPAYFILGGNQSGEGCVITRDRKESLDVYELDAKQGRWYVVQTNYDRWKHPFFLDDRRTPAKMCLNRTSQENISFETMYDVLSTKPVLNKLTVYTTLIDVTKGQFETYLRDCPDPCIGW
# Experimental: The ability of exemplary compounds to inhibit acid ceramidase was measured.
# Cell lysates overexpressing acid ceramidase were used as the enzyme source for compound potency determination in a biochemical fluorescent assay. Briefly, compounds were preincubated with 10 μg protein of cell lysates in a dose-response manner for 1 hr at RT in the assay buffer containing 25 mM NaAC and 100 mM NaCl, pH 4.5. […] The samples were incubated with the stopping buffer at RT for 1 hr to allow the fluorescent product to be formed. […] Data were collected and used to determine the IC50 values of compounds by curve fitting to the four-parameter inhibition equation.
Compound,solubility [1] [µg/mL],IC50 (acid ceramidase (hACR)) [nM]
"O=C(NCCc1ccccc1)n1cnc(-c2ccccc2)c1 [Example 2, N-Phenethyl-4-phenyl-1H-imidazole-1-carboxamide]",0.2,< 200
"CC(C)(C)c1cn(C(=O)NCCc2ccccc2)cn1 [Example 3, 4-tert-Butyl-N-phenethyl-1H-imidazole-1-carboxamide]",5.2,< 200
"O=C(NCCc1ccccc1)n1cnc(-c2ccccn2)c1 [Example 4, N-Phenethyl-4-(pyridin-2-yl)-1H-imidazole-1-carboxamide]",21.1,200 to 1000
"Cc1nc(-c2ccccc2)cn1C(=O)NCCc1ccccc1 [Example 7, 2-Methyl-N-phenethyl-4-phenyl-1H-imidazole-1-carboxamide]",1.1,< 200
"COc1nc(-c2ccccc2)cn1C(=O)NCCc1ccccc1 [Example 8, 2-Methoxy-N-phenethyl-4-phenyl-1H-imidazole-1-carboxamide]",0.1,200 to 1000
O=C(NCCCc1ccccc1)n1cnc(-c2ccccc2)c1 [Example 9],1.3,< 200
"COc1nc(C(C)(C)C)cn1C(=O)NCCc1ccccc1 [Example 11, 4-tert-Butyl-2-methoxy-N-phenethyl-1H-imidazole-1-carboxamide]",15.1,200 to 1000
"COc1nc(-c2ccccc2)cn1C(=O)NCCCc1ccccc1 [Example 12, 2-Methoxy-4-phenyl-N-(3-phenylpropyl)-1H-imidazole-1-carboxamide]",1,200 to 1000
"O=C(NCCOc1ccccc1)n1cnc(-c2ccccc2)c1 [Example 18, N-(2-Phenoxyethyl)-4-phenyl-1H-imidazole-1-carboxamide]",0.06,< 200
"CC(C)(C)c1cn(C(=O)NCCOc2ccccc2)cn1 [Example 19, 4-tert-Butyl-N-(2-phenoxyethyl)-1H-imidazole-1-carboxamide]",0.8,< 200
"O=C(NCCC1(C(F)(F)F)CC1)n1cnc(-c2ccccc2)c1 [Example 25, 4-Phenyl-N-(2-(1-(trifluoromethyl)cyclopropyl)ethyl)-1H-imidazole-1-carboxamide]",0.8,< 200
"N#Cc1ccc(-c2cn(C(=O)NCCc3ccccc3)cn2)cn1 [Example 28, 4-(6-Cyanopyridin-3-yl)-N-phenethyl-1H-imidazole-1-carboxamide]",5,< 200
"O=C(NCCc1ccccc1)n1cnc(-c2ccc(F)nc2)c1 [Example 30, 4-(6-Fluoropyridin-3-yl)-N-phenethyl-1N-imidazole-1-carboxamide]",3.4,< 200
"COc1ccc(-c2cn(C(=O)NCCc3ccccc3)cn2)cn1 [Example 31, 4-(6-Methoxypyridin-3-yi)-N-phenethyl-1H-imidazole-1-carboxamide]",25.1,< 200
"CN(C)Cc1ccc(-c2cn(C(=O)NCCc3ccccc3)cn2)cc1 [Example 34, 4-(4-((Dimethylamino)methyl)phenyl)-N-phenethyl-1H-imidazole-1-carboxamide]",25.6,< 200
"CC(C)CCNC(=O)n1cnc(-c2ccccc2C2CCN(C)CC2)c1 [Example 38, N-iso-Pentyl-4-(2-(1-methylpiperidin-4-yl)phenyl)-1H-imidazole-1-carboxamide]",35.3,200 to 1000
"CN1CCN(c2ncccc2-c2cn(C(=O)NCCCC3(C(F)(F)F)CC3)cn2)CC1 [Example 176, 4-(2-(4-Methylpiperazin-1-yl)pyridin-3-yl)-N-(3-(1-(trifluoromethyl)cyclopropyl)propyl)-1H-imidazole-1-carboxamide]",29,
"COc1nc(Cl)cn1C(=O)NCC#CC(C)C [Example 186, 4-Chloro-2-methoxy-N-(4-methylpent-2-yn-1-yl)-1H-imidazole-1-carboxamide]",,200 to 1000

# The remaining lines, values ahead:
solubility [1] [µg/mL],IC50 (acid ceramidase (hACR)) [nM],Compound
16.2,200 to 1000,O=C(NCCc1ccccc1)n1cnc(-c2cccnc2)c1 [Example 5]
23.9,> 1000,"O=C(NCCc1ccccc1)n1cnc(-c2ccncc2)c1 [Example 6, N-Phenethyl-4-(pyridin-4-yl)-1H-imidazole-1-carboxamide]"
1.9,< 200,"CC(C)(CNC(=O)n1cnc(-c2cccnc2)c1)c1ccccc1 [Example 13, N-(2-Methyl-2-phenylpropyl)-4-(pyridin-3-yl)-1H-imidazole-1-carboxamide]"
14.3,< 200,"O=C(NCCCc1ccccc1)n1cnc(-c2cccnc2)c1 [Example 14, N-(3-Phenylpropyl)-4-(pyridin-3-yl)-1H-imidazole-1-carboxamide]"
16.1,< 200,"CC(CNC(=O)n1cnc(-c2cccnc2)c1)Cc1ccccc1 (stereo not shown) [Example 15, N-(2-Methyl-3-phenylpropyl)-4-(pyridin-3-yl)-1H-imidazole-1-carboxamide]"
3.8,< 200,"CC(CCNC(=O)n1cnc(-c2cccnc2)c1)c1ccccc1 (stereo not shown) [Example 16, N-(3-Phenylbutyl)-4-(pyridin-3-yl)-1H-imidazole-1-carboxamide]"
2.6,< 200,"O=C(NCCOc1ccccc1)n1cnc(-c2cccnc2)c1 [Example 17, N-(2-Phenoxyethyl)-4-(pyridin-3-yl)-1H-imidazole-1-carboxamide]"
0.2,200 to 1000,"CC(C)(C)c1cn(C(=O)NCCc2cccnc2)cn1 [Example 20, 4-tert-Butyl-N-(2-(pyridin-3-yl)ethyl)-1H-imidazole-1-carboxamide]"
21.5,200 to 1000,"CC(C)CCNC(=O)n1cnc(-c2cccnc2)c1 [Example 21, N-iso-Pentyl-4-(pyridin-3-yl)-1H-imidazole-1-carboxamide]"
23,200 to 1000,"O=C(NCCC1CC1)n1cnc(-c2cccnc2)c1 [Example 22, N-(2-Cyclopropylethyl)-4-(pyridin-3-yl)-1H-imidazole-1-carboxamide]"
23.7,200 to 1000,"O=C(NCCC1(C(F)(F)F)CC1)n1cnc(-c2cccnc2)c1 [Example 23, 4-(Pyridin-3-yl)-N-(2-(1-(trifluoromethyl)cyclopropyl)ethyl)-1H-imidazole-1-carboxamide]"
12.6,> 1000,"CC(C)OCCNC(=O)n1cnc(-c2cccnc2)c1 [Example 24, N-(2-iso-Propoxyethyl)-4-(pyridin-3-yl)-1H-imidazole-1-carboxamide]"
1.9,200 to 1000,"O=C(NCCC1CC1)n1cnc(-c2ccccc2)c1 [Example 26, N-(2-Cyclopropylethyl)-4-phenyl-1H-imidazole-1-carboxamide]"
3.1,< 200,"CC(C)CCNC(=O)n1cnc(-c2ccccc2)c1 [Example 27, N-iso-Pentyl-4-phenyl-1H-imidazole-1-carboxamide]"
3,< 200,"Cc1ccc(-c2cn(C(=O)NCCc3ccccc3)cn2)cn1 [Example 29, 4-(6-Methylpyridin-3-yl)-N-phenethyl-1H-imidazole-1-carboxamide]"
27.6,200 to 1000,"O=C(NCCCC1CC1)n1cnc(-c2cccnc2)c1 [Example 32, N-(3-Cyclopropylpropyl)-4-(pyridin-3-yl)-1H-imidazole-1-carboxamide]"
18.9,200 to 1000,CC(C)CCCNC(=O)n1cnc(-c2cccnc2)c1 [Example 33]
19.1,> 1000,"CC(C)CNC(=O)n1cnc(-c2cccnc2)c1 [Example 35, N-iso-Butyl-4-(pyridin-3-yl)-1H-imidazole-1-carboxamide]"
2.9,200 to 1000,"COc1ccc(-c2cn(C(=O)NCCC(C)C)cn2)cn1 [Example 36, N-iso-Pentyl-4-(6-methoxypyridin-3-yl)-1H-imidazole-1-carboxamide]"
7.3,> 1000,"Cc1ccc(-c2cn(C(=O)NCCC(C)C)cn2)cn1 [Example 37, N-iso-Pentyl-4-(6-methylpyridin-3-yl)-1H-imidazole-1-carboxamide]"
2.7,< 200,"CC(C)CCCCNC(=O)n1cnc(-c2cccnc2)c1 [Example 39, N-(5-Methylhexyl)-4-(pyridin-3-yl)-1H-imidazole-1-carboxamide]"
22.1,> 1000,"CC(C)CCNC(=O)n1cnc(-c2ccncc2)c1 [Example 41, N-iso-Pentyl-4-(pyridin-4-yl)-1H-imidazole-1-carboxamide]"
13.6,200 to 1000,O=C(NCc1ccccc1)n1cnc(-c2cccnc2)c1 [Example 42]
0.8,< 200,"CC(C)c1ccc(-c2cn(C(=O)NCCc3ccccc3)cn2)cn1 [Example 43, 4-(6-iso-Propylpyridin-3-yl)-N-phenethyl-1H-imidazole-1-carboxamide]"
